Laboratory results taken from ChEMBL document CHEMBL5465560, “Selectivity Literature for EUbOPEN Chemogenomic Library” (2024).

What was measured:
[1] = biological target: Phosphatidylinositol 4,5-bisphosphate 3-kinase catalytic subunit alpha isoform (Homo sapiens) (UniProt P42336); conditions: at 10 µM
[2] = biological target: Serine/threonine-protein kinase N2 (Homo sapiens, UniProt Q16513); experiment: Selectivity interaction (KinomeScan (DiscoverX)) EUB0001049a PKN2; conditions: at 1 µM
[3] = biological target: Tyrosine-protein kinase FRK (Homo sapiens) (UniProt P42685); experiment: Selectivity interaction (KinomeScan (DiscoverX)) EUB0001619a FRK; conditions: at 1 µM
[4] = biological target: T1, Phosphatidylinositol 5-phosphate 4-kinase type-2 beta (Homo sapiens) (UniProt P78356); experiment: Selectivity interaction (ActivX KiNativ screen (ex vivo kinase selectivity in human PBMCs)) EUB0001619a PIP4K2B; assay type: cell-based; conditions: PBMC, at 1 µM
T1 sequence (whole entry): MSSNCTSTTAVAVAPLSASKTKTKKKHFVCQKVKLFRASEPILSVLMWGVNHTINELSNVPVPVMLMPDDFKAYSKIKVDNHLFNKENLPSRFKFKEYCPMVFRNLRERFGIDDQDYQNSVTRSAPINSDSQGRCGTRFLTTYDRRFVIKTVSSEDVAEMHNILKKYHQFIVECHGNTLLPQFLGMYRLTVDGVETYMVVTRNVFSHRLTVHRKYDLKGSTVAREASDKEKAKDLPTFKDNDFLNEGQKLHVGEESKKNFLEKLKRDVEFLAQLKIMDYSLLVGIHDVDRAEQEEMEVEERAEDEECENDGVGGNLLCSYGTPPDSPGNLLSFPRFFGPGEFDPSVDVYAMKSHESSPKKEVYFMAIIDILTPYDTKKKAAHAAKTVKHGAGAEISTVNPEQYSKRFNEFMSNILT

[5] = biological target: Serine/threonine-protein kinase N1 (Homo sapiens, UniProt Q16512); experiment: Selectivity interaction (KinomeScan (DiscoverX)) EUB0000618a PKN1; conditions: at 10 µM
[6] = biological target: T2, Cyclin-dependent kinase 11A (Homo sapiens) (UniProt Q9UQ88); experiment: Selectivity interaction (ActivX KiNativ screen (kinase selectivity in THP-1 cell lysates)) EUB0000639a CDK11A; assay type: subcellular; conditions: lysate
T2 sequence (whole entry): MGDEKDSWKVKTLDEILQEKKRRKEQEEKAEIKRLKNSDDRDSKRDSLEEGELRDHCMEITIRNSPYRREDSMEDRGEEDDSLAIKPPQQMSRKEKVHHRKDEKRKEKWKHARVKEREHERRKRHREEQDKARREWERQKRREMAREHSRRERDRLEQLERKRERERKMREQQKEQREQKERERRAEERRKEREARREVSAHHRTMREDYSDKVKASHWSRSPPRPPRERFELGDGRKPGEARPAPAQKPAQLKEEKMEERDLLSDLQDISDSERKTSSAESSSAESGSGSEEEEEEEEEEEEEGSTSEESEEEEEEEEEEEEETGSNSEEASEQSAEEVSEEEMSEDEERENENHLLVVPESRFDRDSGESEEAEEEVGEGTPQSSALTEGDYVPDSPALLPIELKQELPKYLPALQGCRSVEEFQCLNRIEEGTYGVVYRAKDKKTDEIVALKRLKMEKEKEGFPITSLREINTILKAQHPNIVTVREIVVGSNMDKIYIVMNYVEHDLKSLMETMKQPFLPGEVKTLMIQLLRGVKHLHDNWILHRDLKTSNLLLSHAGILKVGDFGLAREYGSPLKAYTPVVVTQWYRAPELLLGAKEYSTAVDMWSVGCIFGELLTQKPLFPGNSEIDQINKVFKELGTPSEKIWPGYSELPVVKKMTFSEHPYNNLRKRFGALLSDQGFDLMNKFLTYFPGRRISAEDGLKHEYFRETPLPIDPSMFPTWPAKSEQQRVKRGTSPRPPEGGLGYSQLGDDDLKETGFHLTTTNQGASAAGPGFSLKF

[7] = test system: Tyrosine-protein kinase ABL1 (Homo sapiens), P00519 [F317L]; experiment: (§1) Selectivity interaction (KinomeScan (DiscoverX)) EUB0000655a ABL1; conditions: at 10 µM
[8] = test system: Tyrosine-protein kinase ABL1 (Homo sapiens), P00519 [T315I]; experiment: as §1; conditions: at 10 µM
[9] = test system: Tyrosine-protein kinase ABL1 (Homo sapiens), P00519 [F317I]; experiment: as §1; conditions: at 10 µM
[10] = test system: Tyrosine-protein kinase ABL1 (Homo sapiens), P00519 [H396P]; experiment: as §1; conditions: at 10 µM
[11] = test system: Tyrosine-protein kinase ABL1 (Homo sapiens), P00519 [Y253F]; experiment: as §1; conditions: at 10 µM
[12] = test system: Tyrosine-protein kinase ABL1 (Homo sapiens), P00519 [M351T]; experiment: as §1; conditions: at 10 µM
[13] = test system: Tyrosine-protein kinase ABL1 (Homo sapiens), P00519 [E255K]; experiment: as §1; conditions: at 10 µM
[14] = biological target: Tyrosine-protein kinase ABL1 (Homo sapiens, UniProt P00519); experiment: as §1; conditions: at 10 µM
[15] = test system: Tyrosine-protein kinase ABL1 (Homo sapiens), P00519 [Q252H]; experiment: as §1; conditions: at 10 µM
[16] = biological target: T3, MAP/microtubule affinity-regulating kinase 4 (Homo sapiens) (UniProt Q96L34); conditions: at 10 µM
T3 sequence (whole entry): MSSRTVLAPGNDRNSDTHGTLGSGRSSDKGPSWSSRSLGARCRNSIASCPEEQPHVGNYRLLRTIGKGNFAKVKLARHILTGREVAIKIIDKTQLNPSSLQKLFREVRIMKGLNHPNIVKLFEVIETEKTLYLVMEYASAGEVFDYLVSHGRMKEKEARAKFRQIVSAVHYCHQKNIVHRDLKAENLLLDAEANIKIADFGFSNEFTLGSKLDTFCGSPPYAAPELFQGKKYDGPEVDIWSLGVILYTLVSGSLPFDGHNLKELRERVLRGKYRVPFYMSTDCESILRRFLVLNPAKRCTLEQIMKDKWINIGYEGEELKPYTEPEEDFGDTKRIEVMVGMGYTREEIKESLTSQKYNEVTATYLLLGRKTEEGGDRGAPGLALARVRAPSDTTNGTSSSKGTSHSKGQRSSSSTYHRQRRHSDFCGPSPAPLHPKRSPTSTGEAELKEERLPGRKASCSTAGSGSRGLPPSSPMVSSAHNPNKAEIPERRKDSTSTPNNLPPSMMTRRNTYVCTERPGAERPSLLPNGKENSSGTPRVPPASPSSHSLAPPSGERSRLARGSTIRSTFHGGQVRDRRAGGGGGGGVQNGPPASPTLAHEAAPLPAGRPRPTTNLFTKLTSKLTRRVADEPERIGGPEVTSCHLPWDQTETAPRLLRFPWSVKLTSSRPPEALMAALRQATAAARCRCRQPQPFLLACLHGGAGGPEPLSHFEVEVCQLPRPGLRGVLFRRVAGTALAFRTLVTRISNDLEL

[17] = test system: Mast/stem cell growth factor receptor Kit (Homo sapiens), P10721 [V559D]; experiment: (§2) Selectivity interaction (KinomeScan (DiscoverX)) EUB0000092b KIT; conditions: at 10 µM
[18] = test system: Mast/stem cell growth factor receptor Kit (Homo sapiens), P10721 [L576P]; experiment: as §2; conditions: at 10 µM
Sequence of Mast/stem cell growth factor receptor Kit (Homo sapiens), P10721 [L576P] (P10721 whole entry L576P): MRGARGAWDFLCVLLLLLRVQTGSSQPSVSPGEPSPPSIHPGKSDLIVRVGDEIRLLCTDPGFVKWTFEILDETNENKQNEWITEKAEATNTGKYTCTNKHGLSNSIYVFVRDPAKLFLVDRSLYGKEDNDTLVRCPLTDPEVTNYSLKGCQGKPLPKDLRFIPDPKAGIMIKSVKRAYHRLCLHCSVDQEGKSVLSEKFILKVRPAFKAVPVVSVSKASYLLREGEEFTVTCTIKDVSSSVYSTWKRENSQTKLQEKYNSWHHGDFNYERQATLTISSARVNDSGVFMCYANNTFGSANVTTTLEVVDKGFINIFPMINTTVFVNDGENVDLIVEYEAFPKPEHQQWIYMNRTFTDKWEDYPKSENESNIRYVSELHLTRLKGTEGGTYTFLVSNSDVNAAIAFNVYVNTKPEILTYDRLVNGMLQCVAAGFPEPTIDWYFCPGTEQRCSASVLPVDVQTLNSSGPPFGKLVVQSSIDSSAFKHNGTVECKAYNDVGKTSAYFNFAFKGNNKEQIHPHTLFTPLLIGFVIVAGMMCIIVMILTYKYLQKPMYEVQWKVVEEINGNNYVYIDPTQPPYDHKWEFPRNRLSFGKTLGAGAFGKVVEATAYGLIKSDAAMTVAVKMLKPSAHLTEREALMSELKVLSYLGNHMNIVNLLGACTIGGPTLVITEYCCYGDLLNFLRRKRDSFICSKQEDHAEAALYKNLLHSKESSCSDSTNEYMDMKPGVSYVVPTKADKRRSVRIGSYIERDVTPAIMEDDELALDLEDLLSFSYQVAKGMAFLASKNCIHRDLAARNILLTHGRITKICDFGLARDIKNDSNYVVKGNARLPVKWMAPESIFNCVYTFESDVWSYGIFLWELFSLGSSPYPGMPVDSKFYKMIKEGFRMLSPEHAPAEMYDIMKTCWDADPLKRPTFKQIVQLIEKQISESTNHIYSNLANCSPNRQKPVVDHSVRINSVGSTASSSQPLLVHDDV

Sequence of Serine/threonine-protein kinase N1 (Q16512 2-942 limits assumed): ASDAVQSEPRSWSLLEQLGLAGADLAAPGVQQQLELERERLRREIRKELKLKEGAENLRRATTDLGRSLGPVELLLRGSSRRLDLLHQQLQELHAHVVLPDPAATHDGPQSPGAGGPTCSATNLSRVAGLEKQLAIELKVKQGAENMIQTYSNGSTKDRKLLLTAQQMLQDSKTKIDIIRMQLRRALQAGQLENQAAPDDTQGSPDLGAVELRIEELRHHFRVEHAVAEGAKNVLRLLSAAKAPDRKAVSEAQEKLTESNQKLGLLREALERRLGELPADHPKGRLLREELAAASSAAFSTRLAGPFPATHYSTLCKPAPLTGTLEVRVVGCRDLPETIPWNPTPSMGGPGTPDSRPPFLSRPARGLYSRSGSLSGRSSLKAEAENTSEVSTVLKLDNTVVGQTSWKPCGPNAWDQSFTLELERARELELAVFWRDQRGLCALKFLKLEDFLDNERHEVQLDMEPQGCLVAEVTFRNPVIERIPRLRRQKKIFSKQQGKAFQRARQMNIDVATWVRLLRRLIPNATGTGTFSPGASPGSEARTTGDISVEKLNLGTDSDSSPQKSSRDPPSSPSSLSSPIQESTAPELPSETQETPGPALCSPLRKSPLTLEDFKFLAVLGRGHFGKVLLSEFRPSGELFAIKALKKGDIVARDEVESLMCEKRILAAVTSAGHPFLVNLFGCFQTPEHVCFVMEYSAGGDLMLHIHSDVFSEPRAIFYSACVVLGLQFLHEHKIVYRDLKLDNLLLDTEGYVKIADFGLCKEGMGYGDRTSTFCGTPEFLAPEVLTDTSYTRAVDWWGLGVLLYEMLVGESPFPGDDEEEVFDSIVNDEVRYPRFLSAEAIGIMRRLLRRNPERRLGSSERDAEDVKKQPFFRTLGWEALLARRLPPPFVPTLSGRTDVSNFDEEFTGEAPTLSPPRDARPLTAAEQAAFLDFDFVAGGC
Sequence of Mast/stem cell growth factor receptor Kit (Homo sapiens), P10721 [V559D] (P10721 whole entry V559D): as the sequence (P10721 whole entry L576P) above, with V559D, P576L counted along it
Sequence of Tyrosine-protein kinase FRK (Homo sapiens) (P42685 whole entry): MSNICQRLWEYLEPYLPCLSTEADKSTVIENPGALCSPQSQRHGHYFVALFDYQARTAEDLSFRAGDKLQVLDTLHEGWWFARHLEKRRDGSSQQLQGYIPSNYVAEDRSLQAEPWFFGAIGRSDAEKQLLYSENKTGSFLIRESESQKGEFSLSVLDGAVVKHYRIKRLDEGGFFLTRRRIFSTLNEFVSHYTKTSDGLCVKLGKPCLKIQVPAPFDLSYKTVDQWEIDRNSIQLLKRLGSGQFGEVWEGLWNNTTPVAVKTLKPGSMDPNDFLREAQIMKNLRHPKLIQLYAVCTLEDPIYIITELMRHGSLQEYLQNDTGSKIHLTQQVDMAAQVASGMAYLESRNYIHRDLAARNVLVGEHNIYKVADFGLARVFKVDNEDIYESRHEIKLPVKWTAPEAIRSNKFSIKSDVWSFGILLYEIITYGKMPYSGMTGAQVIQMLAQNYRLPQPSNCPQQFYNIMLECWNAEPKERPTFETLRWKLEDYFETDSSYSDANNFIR
Sequence of Phosphatidylinositol 4,5-bisphosphate 3-kinase catalytic subunit alpha isoform (Homo sapiens) (P42336 whole entry, canonical isoform): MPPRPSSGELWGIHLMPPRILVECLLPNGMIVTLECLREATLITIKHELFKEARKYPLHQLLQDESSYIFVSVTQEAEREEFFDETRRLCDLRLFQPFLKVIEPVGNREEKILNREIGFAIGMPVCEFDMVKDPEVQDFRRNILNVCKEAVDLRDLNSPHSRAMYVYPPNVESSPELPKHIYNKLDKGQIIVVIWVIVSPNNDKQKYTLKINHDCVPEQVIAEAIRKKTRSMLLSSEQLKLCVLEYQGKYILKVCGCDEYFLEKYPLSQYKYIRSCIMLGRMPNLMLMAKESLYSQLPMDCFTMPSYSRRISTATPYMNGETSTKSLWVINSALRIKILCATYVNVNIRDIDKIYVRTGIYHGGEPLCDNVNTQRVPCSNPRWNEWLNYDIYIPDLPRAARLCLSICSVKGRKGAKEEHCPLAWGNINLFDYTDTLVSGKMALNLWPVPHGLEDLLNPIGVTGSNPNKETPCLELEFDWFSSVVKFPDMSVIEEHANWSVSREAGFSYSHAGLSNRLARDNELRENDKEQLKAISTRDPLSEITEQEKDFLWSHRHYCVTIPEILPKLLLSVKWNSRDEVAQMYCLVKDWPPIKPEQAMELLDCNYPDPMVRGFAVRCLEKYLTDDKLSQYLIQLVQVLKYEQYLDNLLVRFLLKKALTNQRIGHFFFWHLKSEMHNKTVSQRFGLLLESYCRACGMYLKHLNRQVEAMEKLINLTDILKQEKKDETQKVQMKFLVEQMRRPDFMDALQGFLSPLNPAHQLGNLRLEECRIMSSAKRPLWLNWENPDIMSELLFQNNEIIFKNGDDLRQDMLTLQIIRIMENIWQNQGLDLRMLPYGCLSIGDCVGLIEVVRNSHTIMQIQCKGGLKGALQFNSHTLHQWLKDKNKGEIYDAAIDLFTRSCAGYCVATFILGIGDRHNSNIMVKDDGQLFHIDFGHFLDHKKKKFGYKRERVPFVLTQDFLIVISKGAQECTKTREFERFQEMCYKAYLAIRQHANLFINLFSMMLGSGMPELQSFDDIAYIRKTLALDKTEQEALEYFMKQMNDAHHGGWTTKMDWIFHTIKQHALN
Sequence of Serine/threonine-protein kinase N2 (Q16513 whole entry, looked up): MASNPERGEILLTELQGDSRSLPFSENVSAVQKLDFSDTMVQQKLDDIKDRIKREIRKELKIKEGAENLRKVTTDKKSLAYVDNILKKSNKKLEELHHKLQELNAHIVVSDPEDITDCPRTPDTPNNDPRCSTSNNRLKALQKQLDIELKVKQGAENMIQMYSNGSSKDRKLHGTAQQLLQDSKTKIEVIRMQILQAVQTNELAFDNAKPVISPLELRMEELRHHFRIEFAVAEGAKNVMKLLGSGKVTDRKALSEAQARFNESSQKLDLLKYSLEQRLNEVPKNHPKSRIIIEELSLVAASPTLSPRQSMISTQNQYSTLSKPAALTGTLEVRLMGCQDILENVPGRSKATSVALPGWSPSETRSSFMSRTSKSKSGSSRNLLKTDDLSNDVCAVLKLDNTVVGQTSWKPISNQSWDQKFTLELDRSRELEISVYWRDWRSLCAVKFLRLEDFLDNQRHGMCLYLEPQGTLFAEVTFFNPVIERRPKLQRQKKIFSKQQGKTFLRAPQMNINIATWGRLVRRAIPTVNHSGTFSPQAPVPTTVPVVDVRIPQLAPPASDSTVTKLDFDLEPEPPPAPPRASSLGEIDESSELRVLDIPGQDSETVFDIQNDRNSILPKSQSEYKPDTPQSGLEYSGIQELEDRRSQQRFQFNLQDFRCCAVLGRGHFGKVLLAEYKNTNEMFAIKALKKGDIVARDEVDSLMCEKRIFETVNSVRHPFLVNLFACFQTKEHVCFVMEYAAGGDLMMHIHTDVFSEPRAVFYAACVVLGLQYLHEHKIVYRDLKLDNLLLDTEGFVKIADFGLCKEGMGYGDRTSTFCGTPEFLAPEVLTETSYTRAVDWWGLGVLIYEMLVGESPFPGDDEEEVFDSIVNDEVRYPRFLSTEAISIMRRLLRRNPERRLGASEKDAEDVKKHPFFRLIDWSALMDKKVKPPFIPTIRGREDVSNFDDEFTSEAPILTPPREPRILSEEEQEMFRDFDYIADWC

Q: COCC(=O)NC/C=C/c1ccc2ncnc(Nc3ccc(Oc4ccc(C)nc4)c(C)c3)c2c1 [CP-724714] was tested. Which % of control [1] did it give?
A: Its % of control is 100%.

Q: How did the % of control [2] turn out when COc1cc(Nc2nc(C)cc(-c3cnn4nc(OC)ccc34)n2)cc(C(F)(F)F)c1 was run?
A: Its % of control is 90%.

Q: Which results are given for N#Cc1cccc(-c2c[nH]c3ncnc(N4CCOCC4)c23)c1?
A: % of control [3]: 88%; % of inhibition [4]: 16%

Q: Which % of control [5] does the source give for O[C@H]1CC[C@H](Nc2ncc3nc(Nc4c(F)cc(F)cc4F)n([C@H]4CCOC4)c3n2)CC1 here?
A: The % of control was 91%.

Q: For CC[C@@H]1[C@H](F)C(=O)N[C@@H]1COc1nccc2cc(C(N)=O)c(OC)cc12 [ZIMLOVISERTIB], which % of inhibition ([6]; at 0.01 µM) is on record?
A: The % of inhibition was 10.4%.

Q: And the % of inhibition ([6]; at 0.04 µM)?
A: Its % of inhibition is -11.1%.

Q: And the % of inhibition ([6]; at 0.2 µM)?
A: The % of inhibition was 2.6%.

Q: What about the % of inhibition ([6]; at 1 µM) of the same compound?
A: Its % of inhibition is 7.8%.

Q: What about the % of inhibition ([6]; at 5 µM) of the same compound?
A: Its % of inhibition is 18.7%.

Q: How did the % of control [7] turn out when CN(C)CCOc1ccc(-c2nc(-c3ccncc3)c(-c3ccc4c(c3)CC/C4=N\O)[nH]2)cc1 was run?
A: The % of control was 37%.

Q: What about the % of control [8] of the same compound?
A: The % of control was 1.6%.

Q: And the % of control [9]?
A: The % of control was 72%.

Q: And the % of control [10]?
A: The % of control was 1.3%.

Q: What about the % of control [11] of the same compound?
A: Its % of control is 9.1%.

Q: What about the % of control [12] of the same compound?
A: Its % of control is 11%.

Q: What about the % of control [13] of the same compound?
A: Its % of control is 8.6%.

Q: What about the % of control [14] of the same compound?
A: Its % of control is 10%.

Q: What about the % of control [15] of the same compound?
A: The % of control was 3%.

Q: How did the % of control [16] turn out when CCN(CC)CCCCNc1ncc2cc(-c3cc(OC)cc(OC)c3)c(NC(=O)NC(C)(C)C)nc2n1 was run?
A: Its % of control is 100%.

Q: How did the % of control [17] turn out when CCC(=O)N1CCN(c2ccc(-n3c(=O)ccc4cnc5ccc(-c6cnc7ccccc7c6)cc5c43)cc2C(F)(F)F)CC1 was run?
A: The % of control was 50%.

Q: What about the % of control [18] of the same compound?
A: The % of control was 48%.
